# Source: patent US4163784A, “Heterocyclylcarbonyl derivatives of urea, agents for dissolution of gallstones” (Pfizer Inc., priority 1978, dated 1979)
# Tests used:
# male CD-1 mice [1] = assay: acute toxicity, single intraperitoneal dose; format: in vivo; details: 1000 mg./kg. single i.p. dose, 0.6% Tween 20, 10 mice per group, observed one week
# Experimental: The compounds were tested for acute toxicity in the following manner. Healthy male CD-1 mice (20-25 g.), 10 mice per group, received a single high dose of drug by intraperitoneal administration (1000 mg./kg., in 0.6% Tween 20, at a concentration of 70 mg./ml.). (Tween 20, polyoxyethylene sorbitan monolaurate, available from Atlas Chemical Industries, Inc.). The animals were observed continuously for at least two hours, again at 24 hours and daily thereafter for one week. Controls received vehicle alone, […]. and were asymptomatic throughout. The compounds tested and the widely varying mortality rates observed are tabulated below.
# male CD-1 mice [2] = assay: seven-day chronic toxicity test (hepatotoxicity); format: in vivo; details: 500 mg./kg. daily orally in 0.1% methyl cellulose for 5 days
# dogs = assay: oral administration at high dose to dogs, toxicity; format: in vivo; details: 250 mg./kg.
# rats = assay: oral administration at high dose to rats, toxicity; format: in vivo; details: same high dose as dogs (250 mg./kg.)
# [3] = test system: pathogenic cholelithiasis process; details: in man; cited from earlier work
Compound,Mortality Rate (male CD-1 mice [1]),hepatotoxicity (male CD-1 mice [2]),other results
O=C(NCc1ccccc1)NC(=O)c1cccnc1Cl [2-chloro-N-(benzylaminocarbonyl)nicotinamide],0/10,no hepatotoxicity,–
"O=C(NC(=O)N1CC=CCC1)c1cccnc1 [3-pyridyl, 1-(1,2,3,6-tetrahydropyridyl)]",9/10,–,–
"CCCCN(CCCC)C(=O)NC(=O)c1cccnc1 [3-pyridyl, N-(n-C 4 H9)2]",10/10,–,–
"CCCCN(CCCC)C(=O)NC(=O)c1cncs1 [5-thiazolyl, N-(n-C 4 H9)2]",4/10,–,–
"O=C(NC(=O)N1CC=CCC1)c1ccc(Cl)nc1 [6-Chloro-N-[1-(1,2,3,6-tetrahydropyridyl)carbonyl]nicotinamide]",0/10,produced hepatotoxicity,"pathological signs in dogs (dogs): pathological signs suggestive of cardiac impairment; toxic effects in dogs: death (dogs; ten times the projected efficacious dose): death of the dogs; toxicological symptoms in rats (rats): only moderate toxicological symptoms, including lethargy, diminished appetite and weight gain, and slight abnormalities in clinical chemistry"
C[C@H](CCC(=O)O)[C@H]1CC[C@H]2[C@@H]3[C@H](O)C[C@@H]4C[C@H](O)CC[C@]4(C)[C@H]3CC[C@]12C [chenodeoxycholic acid],–,–,prevention and reversal of the pathogenic cholelithiasis process [3]: prevention and even reversal of the pathogenic cholelithiasis process in man
